This note sets out measurements from patent EP0226973A2, “4-Bis(2'-hydroxyethyl)amino-1-(3'-hydroxypropyl)amino-2-nitro-benzene, process for its preparation and means for dyeing hair” (Wella Aktiengesellschaft, priority 1985, dated 1987).

Structures are written as SMILES. Values after ≈ are worked out from the molar mass of the structure shown. Read-outs that look alike come from different tables or passages of the source.

One data set can be described thus: Solubility in water. The format is physicochemical. As to conditions: read-out: Löslichkeit in Wasser.
The nature of the next data set: Ames mutagenicity test. Type of data set: cell-based. Conditions: Mutagenitätstest nach Ames.
The subject of another data set is Human-Lymphozyten. Description: Human lymphocyte mutagenicity test. The format is cell-based. As to conditions: Human-Lymphozytentest.
A short description of data set [1]: Toxicological properties (general statement).

In the case of `CCNc1ccc(N(CCO)CCO)cc1[N+](=O)[O-]` [Farbstoff (III), 4-Bis(2′-hydroxyethyl)amino-l-ethylamino-2-nitro-benzol], in “Solubility in water” (ohne Zusatz von Lösungsvermittlern), the solubility is less than 1500 µg/mL.

For `CNc1ccc(N(CCO)CCO)cc1[N+](=O)[O-]` [Farbstoff (V), 4-Bis(2′-hydroxyethyl)amino-l-methylamino-2-nitro-benzols], the solubility in “Solubility in water” is approximately 5000 µg/mL (≈ 19.6 mM). In addition, the “mutagene Wirkung” value in “Ames mutagenicity test” and in the data set with Human-Lymphozyten was “im Gegensatz zu Farbstoff (V)” each time. Moreover, the “toxikologische Eigenschaften” value in data set [1] was “sehr unbefriedigend”.

Take `O=[N+]([O-])c1cc(N(CCO)CCO)ccc1NCCCO` [Farbstoff (I), 4-Bis(2′-hydroxyethyl)amino-l-(3′-hydroxypropyl)amino-2-nitro-benzol]: in “Solubility in water”, the solubility was approximately 20000 µg/mL (≈ 66.8 mM). Besides, the “mutagene Wirkung” value in the data set “Ames mutagenicity test” and in the data set with Human-Lymphozyten was “keine mutagene Wirkung” throughout.
